Experimental data as given in PubChem BioAssay AID1259407 (Chemical Carcinogenesis Research Information System (CCRIS), 2018).
The source made the active and inactive calls. No rule for the calls is given here.

System: CCRIS mutagenicity, Ames/micronucleus/aberration tests
Assay: CCRIS mutagenicity studies
[1] = Test System: AMES SALMONELLA TYPHIMURIUM, Strain/Indicator: TA100, Metabolic Activation: NONE, Method: PREINCUBATION
[2] = Test System: AMES SALMONELLA TYPHIMURIUM, Strain/Indicator: TA100, Metabolic Activation: NONE, Method: STANDARD PLATE

With `CCN(CC)C(=O)c1cccc(C)c1` the mutagenic call (End Point: In vitro chromosomal aberrations, Test System: Chinese hamster ovary (CHO-K1) cells, Metabolic Activation: None) was “inactive; negative”, the mutagenic call (End Point: In vitro chromosomal aberrations, Test System: Chinese hamster ovary (CHO-K1) cells, Metabolic Activation: Rat, Liver, S-9, Aroclor 1254) was “inactive; negative” and the mutagenic call (Test System: AMES SALMONELLA TYPHIMURIUM, Strain/Indicator: TA97, Metabolic Activation: HAMSTER, LIVER, S-9, AROCLOR 1254 (10%), Method: PREINCUBATION) was “inactive; negative”. The mutagenic call (Test System: AMES SALMONELLA TYPHIMURIUM, Strain/Indicator: TA97, Metabolic Activation: HAMSTER, LIVER, S-9, AROCLOR 1254 (30%), Method: PREINCUBATION) was “inactive; negative”, the mutagenic call (Test System: AMES SALMONELLA TYPHIMURIUM, Strain/Indicator: TA97, Metabolic Activation: NONE, Method: PREINCUBATION) was “inactive; negative” and the mutagenic call (Test System: AMES SALMONELLA TYPHIMURIUM, Strain/Indicator: TA97, Metabolic Activation: RAT, LIVER, S-9, AROCLOR 1254 (10%), Method: PREINCUBATION) was “inactive; negative”. The mutagenic call (Test System: AMES SALMONELLA TYPHIMURIUM, Strain/Indicator: TA97, Metabolic Activation: RAT, LIVER, S-9, AROCLOR 1254 (30%), Method: PREINCUBATION) was “inactive; negative”, the mutagenic call (Test System: AMES SALMONELLA TYPHIMURIUM, Strain/Indicator: TA98, Metabolic Activation: HAMSTER, LIVER, S-9, AROCLOR 1254 (10 OR 30%), Method: PREINCUBATION) was “inactive; negative” and the mutagenic call (Test System: AMES SALMONELLA TYPHIMURIUM, Strain/Indicator: TA98, Metabolic Activation: NONE, Method: PREINCUBATION) was “inactive; negative”. For the same compound, the mutagenic call (Test System: AMES SALMONELLA TYPHIMURIUM, Strain/Indicator: TA98, Metabolic Activation: RAT, LIVER, S-9, AROCLOR 1254 (10 OR 30%), Method: PREINCUBATION) was “inactive; negative”, the mutagenic call (Test System: AMES SALMONELLA TYPHIMURIUM, Strain/Indicator: TA100, Metabolic Activation: HAMSTER, LIVER, S-9, AROCLOR 1254 (10 OR 30%), Method: PREINCUBATION) was “inactive; negative” and the mutagenic call [1] was “inactive; negative”. For the same compound, the mutagenic call (Test System: AMES SALMONELLA TYPHIMURIUM, Strain/Indicator: TA100, Metabolic Activation: RAT, LIVER, S-9, AROCLOR 1254 (10 OR 30%), Method: PREINCUBATION) was “inactive; negative”, the mutagenic call (Test System: AMES SALMONELLA TYPHIMURIUM, Strain/Indicator: TA1535, Metabolic Activation: HAMSTER, LIVER, S-9, AROCLOR 1254 (10%), Method: PREINCUBATION) was “inactive; negative” and the mutagenic call (Test System: AMES SALMONELLA TYPHIMURIUM, Strain/Indicator: TA1535, Metabolic Activation: HAMSTER, LIVER, S-9, AROCLOR 1254 (30%), Method: PREINCUBATION) was “inactive; negative”. For the same compound, the mutagenic call (Test System: AMES SALMONELLA TYPHIMURIUM, Strain/Indicator: TA1535, Metabolic Activation: NONE, Method: PREINCUBATION) was “inactive; negative”, the mutagenic call (Test System: AMES SALMONELLA TYPHIMURIUM, Strain/Indicator: TA1535, Metabolic Activation: RAT, LIVER, S-9, AROCLOR 1254 (10%), Method: PREINCUBATION) was “inactive; negative” and the mutagenic call (Test System: AMES SALMONELLA TYPHIMURIUM, Strain/Indicator: TA1535, Metabolic Activation: RAT, LIVER, S-9, AROCLOR 1254 (30%), Method: PREINCUBATION) was “inactive; negative”.

For `CN(C)C(=S)S`, the mutagenic call [2] was “active; positive” and the mutagenic call (Test System: AMES SALMONELLA TYPHIMURIUM, Strain/Indicator: TA100, Metabolic Activation: S-9 MIX, Method: STANDARD PLATE) was “inactive; negative”.

In the case of `C1CCC2OCCOCCOCCOCCOC3CCCCC3OCCOCCOCCOCCOC2C1` (stereo not drawn), the mutagenic call (Test System: AMES SALMONELLA TYPHIMURIUM, Strain/Indicator: TA98, Metabolic Activation: NONE, Method: STANDARD PLATE) is reported as “inactive; negative”, the mutagenic call (Test System: AMES SALMONELLA TYPHIMURIUM, Strain/Indicator: TA98, Metabolic Activation: RAT, LIVER, S-9, AROCLOR 1254, Method: STANDARD PLATE) is reported as “inactive; negative” and the mutagenic call [2] is reported as “inactive; negative”. For the same compound, the mutagenic call (Test System: AMES SALMONELLA TYPHIMURIUM, Strain/Indicator: TA100, Metabolic Activation: RAT, LIVER, S-9, AROCLOR 1254, Method: STANDARD PLATE) was “inactive; negative”, the mutagenic call (Test System: AMES SALMONELLA TYPHIMURIUM, Strain/Indicator: TA1530, Metabolic Activation: NONE, Method: STANDARD PLATE) was “inactive; negative” and the mutagenic call (Test System: AMES SALMONELLA TYPHIMURIUM, Strain/Indicator: TA1530, Metabolic Activation: RAT, LIVER, S-9, AROCLOR 1254, Method: STANDARD PLATE) was “inactive; negative”. For the same compound, the mutagenic call (Test System: AMES SALMONELLA TYPHIMURIUM, Strain/Indicator: TA1537, Metabolic Activation: NONE, Method: STANDARD PLATE) was “inactive; negative” and the mutagenic call (Test System: AMES SALMONELLA TYPHIMURIUM, Strain/Indicator: TA1537, Metabolic Activation: RAT, LIVER, S-9, AROCLOR 1254, Method: STANDARD PLATE) was “inactive; negative”.

With `COc1cc(COC(=O)CCCCCCC(C)C)ccc1O` the mutagenic call (End Point: In vivo micronucleus, Test System: Bone marrow polychromatic erythrocytes, Species: Mouse, Strain/Sex: BDF1/male, Route: Oral) was “inactive; negative”, the mutagenic call (Test System: Ames Salmonella typhimurium, Strain/Indicator: TA98, Metabolic Activation: None, Method: Preincubation) was “inactive; negative” and the mutagenic call (Test System: Ames Salmonella typhimurium, Strain/Indicator: TA98, Metabolic Activation: Rat, Liver, S-9, Phenobarbital and 5,6-benzoflavone, Method: Preincubation) was “inactive; negative”. For the same compound, the mutagenic call (Test System: Ames Salmonella typhimurium, Strain/Indicator: TA100, Metabolic Activation: Rat, Liver, S-9, Phenobarbital and 5,6-benzoflavone, Method: Preincubation) was “inactive; negative”, the mutagenic call (Test System: Ames Salmonella typhimurium, Strain/Indicator: TA1535, Metabolic Activation: None, Method: Preincubation) was “inactive; negative” and the mutagenic call (Test System: Ames Salmonella typhimurium, Strain/Indicator: TA1535, Metabolic Activation: Rat, Liver, S-9, Phenobarbital and 5,6-benzoflavone, Method: Preincubation) was “inactive; negative”. For the same compound, the mutagenic call (Test System: Ames Salmonella typhimurium, Strain/Indicator: TA1537, Metabolic Activation: Rat, Liver, S-9, Phenobarbital and 5,6-benzoflavone, Method: Preincubation) was “inactive; negative”, the mutagenic call (Test System: E. coli, Strain/Indicator: WP2 uvrA, Metabolic Activation: None, Method: Preincubation) was “inactive; negative” and the mutagenic call (Test System: E. coli, Strain/Indicator: WP2 uvrA, Metabolic Activation: Rat, Liver, S-9, Phenobarbital and 5,6-benzoflavone, Method: Preincubation) was “inactive; negative”.

With `CC(=O)Nc1ccc(Cc2ccc(NC(C)=O)c(Cl)c2)cc1Cl` the mutagenic call [1] was “inactive; negative”, the mutagenic call (Test System: AMES SALMONELLA TYPHIMURIUM, Strain/Indicator: TA100, Metabolic Activation: RAT, LIVER, S-9, AROCLOR 1254 (50 µL), Method: PREINCUBATION) was “inactive; negative” and the mutagenic call (Test System: AMES SALMONELLA TYPHIMURIUM, Strain/Indicator: TA100, Metabolic Activation: RAT, LIVER, S-9, AROCLOR 1254 (100 OR 200 µL), Method: PREINCUBATION) was “active; positive”.

In the case of `O=C/C=C/C=C/C(=O)O`, the mutagenic call (Test System: CHINESE HAMSTER V-79, Strain/Indicator: V-79 (HGPRT)/8-AZAGUANINE, Metabolic Activation: NONE) is reported as “active; positive”.

For `O=C1OC(=C(Cl)Cl)C(Cl)=C1Cl`, the mutagenic call [2] was “active; positive”.

In the case of `N=C1C=CC2=C(S(=O)(=O)O)C=CC(=O)C2=C1NNc1ccc(-c2ccc(NNC3=C4C(=O)C=CC(S(=O)(=O)O)=C4C=CC3=N)cc2)cc1`, the mutagenic call (Test System: AMES SALMONELLA TYPHIMURIUM, Strain/Indicator: TA98, Metabolic Activation: HAMSTER, LIVER, S-9, Method: PREINCUBATION (PRIVAL METHOD)) is reported as “active; positive”.
